One assay concerns MV4-11 cells. The assay is described as follows: MV4-11 cell proliferation, CCK-8. The note with it: Homo sapiens, 72 h, read-out: IC50 of inhibition of proliferation of MV4-11 cells. It is filed as cell-based. The protocol:
The inhibitory effects of the compounds on the proliferation of MV4-11 cells were detected by a CCK-8 cell counting kit (Dojindo). The specific steps are as follows: MV4-11 cells in the logarithmic phase were seeded into a 96-well culture plate at a suitable density for 90 μL per well. After overnight cultivation, the compounds at different concentrations were added to act for 72 hr, and a solvent control group was set (negative control). After 72 h of the compounds acting on the cells, the effects of the compounds on cell proliferation were detected using the CCK-8 cell counting kit (Dojindo). 10 μL of CCK-8 reagent was added to each well and the plate was placed in an incubator at 37° C. for 2-4 hours. After that, a full-wavelength microplate enzyme-labeling instrument SpectraMax 190 was used to read with a measurement wavelength of 450 nm.
The inhibition rate (%) of the compound on tumor cell growth was calculated by the following formula:
Inhibition rate (%)=(OD control well−OD administration well)/OD control well×100%
The IC50 values were obtained by regression with the four-parameter method using the software attached to the enzyme-labeling instrument.

In the next assay the target is T1, AXL kinase (Homo sapiens, UniProt P30530).
T1 construct: purchased eurofins 14-500
T1 sequence (P30530 473-894 limits assumed): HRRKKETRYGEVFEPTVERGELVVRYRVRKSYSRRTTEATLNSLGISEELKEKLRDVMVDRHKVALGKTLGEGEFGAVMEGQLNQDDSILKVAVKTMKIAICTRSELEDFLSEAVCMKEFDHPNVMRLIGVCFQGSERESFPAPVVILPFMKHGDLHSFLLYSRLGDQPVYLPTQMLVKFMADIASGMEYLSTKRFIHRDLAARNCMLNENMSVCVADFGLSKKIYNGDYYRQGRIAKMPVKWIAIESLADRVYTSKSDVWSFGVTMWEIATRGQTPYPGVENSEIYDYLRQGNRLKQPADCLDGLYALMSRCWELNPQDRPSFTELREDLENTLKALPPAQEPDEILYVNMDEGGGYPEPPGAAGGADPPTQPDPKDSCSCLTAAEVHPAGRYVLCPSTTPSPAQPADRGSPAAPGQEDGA
The experiment in a line: AXL kinase inhibition, Z'-LYTE FRET. In kind it is biochemical. The conditions noted are these: ATP 50 μM. From the text: Detection of the activity of kinase: the inhibitory activities of the compounds against AXL kinase (eurofins, 14-500) were detected through a second-order reaction by the Z′-LYTE™ technology (detected by fluorescence, enzyme-coupled form, based on the difference in a sensitivity of phosphorylated and non-phosphorylated polypeptides to proteolytic cleavage), based on the principle of fluorescence resonance energy transfer (FRET), using Z′-LYTE™ FRET peptide substrate (Z′-LYTE™ Tyrosine 6 Peptide Substrate, Invitrogen, PV4122).
Enzymatic reaction: To a 384-well plate was added 5 μL of enzyme-substrate system (50 mM HEPES, pH 6.5, 0.01% BRU-35, 10 mM MgC2, 1 mM EGTA, 0.02% NaNA), and 5 nL of a compound (concentration gradient) was transferred thereto using an echo520 ultramicro-liquid pipetting system. After the plate was shaken at room temperature for 10-20 min, 25 nL of ATP (a final concentration of 50 μM) was transferred thereto using the echo520 ultramicro-liquid pipetting system. After shaking and well mixing, the mixture was centrifuged and reacted at 30° C. in the dark for 1.5 h.
The data analysis method is as follows:
Phosphorylation ratio=1−{(emission ratio×F100%−C100%)/[C0%−C100%+emission ratio×(F100%−F0%)]}×100;
Inhibition rate=100×(1−compound phosphorylation ratio/negative control phosphorylation ratio).
The IC50 values were calculated by GraphPad Prism software.

Structures are written as SMILES. A value given as a limit tells only on which side of the number the result lay.

`CC(C)(C)c1cc(NC(=O)Nc2ccc(-c3cn4c(n3)sc3cc(OCCN5CCOCC5)ccc34)cc2)no1` [AC220, reference compound]: the IC50 in the assay with MV4-11 cells is less than 4 nM.

Consider `COc1cc2c(Oc3ccc(NC(=O)c4c(C)n(C)c5ccc(OC(F)(F)F)cc5c4=O)cc3F)ncnc2cc1OCCC(C)C` [TL-230, N-(3-fluoro-4-((7-(isopentyloxy)-6-methoxyquinazolin-4-yl)oxy)phenyl)-1,2-dimethyl-4-oxo-6-(trifluoromethoxy)-1,4-dihydroquinoline-3-carboxamide], for which, on AXL kinase, the IC50 is 59.4 nM.

The compound `COc1cc2c(Oc3ccc(NC(=O)c4c(C)n(C)c5ccc(OC(F)(F)F)cc5c4=O)cc3F)ncnc2cc1OCCN1CCCC1` [TL-231, N-(3-fluoro-4-((6-methoxy-7-(2-(pyrrolidin-1-yl)ethoxy)quinazolin-4-yl)oxy)phenyl)-1,2-dimethyl-4-oxo-6-(trifluoromethoxy)-1,4-dihydroquinoline-3-carboxamide] came in with an IC50 against AXL kinase of 2.3 nM.

`COc1cc2c(Oc3ccc(NC(=O)c4c(C)n(C)c5ccc(OC(F)(F)F)cc5c4=O)cc3F)ncnc2cc1OCCN(C)C` [TL-233, N-(4-((7-(2-(dimethylamino)ethoxy)-6-methoxyquinazolin-4-yl)oxy)-3-fluorophenyl)-1,2-dimethyl-4-oxo-6-(trifluoromethoxy)-1,4-dihydroquinoline-3-carboxamide] showed an IC50 on AXL kinase of 1.9 nM.

In the case of `COc1cc2ncnc(Oc3ccc(NC(=O)c4c(C)n(C)c5ccc(OC(F)(F)F)cc5c4=O)cc3F)c2cc1OCCCN1CCOCC1` [TL-236, N-(3-fluoro-4-((7-methoxy-6-(3-morpholinopropoxy)quinazolin-4-yl)oxy)phenyl)-1,2-dim ethyl-4-oxo-6-(trifluoromethoxy)-1,4-dihydroquinoline-3-carboxamide], the IC50 at AXL kinase amounted to 2.4 nM.

`COc1cc2c(Oc3ccc(NC(=O)c4c(C)n(C)c5ccc(OC(F)(F)F)cc5c4=O)cc3F)ncnc2cc1OCCCN1CCN(C)CC1` [TL-238]: on AXL kinase, the IC50 was determined as 1.2 nM.

Consider `CCCOc1cc2ncnc(Oc3ccc(NC(=O)c4c(C)n(C)c5ccc(OC(F)(F)F)cc5c4=O)cc3F)c2cc1OC` [TL-240, N-(3-fluoro-4-((6-methoxy-7-propoxyquinazolin-4-yl)oxy)phenyl)-1,2-dimethyl-4-oxo-6-(trifluoromethoxy)-1,4-dihydroquinoline-3-carboxamide], for which the IC50 at AXL kinase was 6.1 nM.

With `CCOc1cc2ncnc(Oc3ccc(NC(=O)c4c(C)n(C)c5ccc(OC(F)(F)F)cc5c4=O)cc3F)c2cc1OC` [TL-241, N-(4-((7-ethoxy-6-methoxyquinazolin-4-yl)oxy)-3-fluorophenyl)-1,2-dimethyl-4-oxo-6-(trifluoromethoxy)-1,4-dihydroquinoline-3-carboxamide], the IC50 on AXL kinase worked out at 2.6 nM.

The values above are taken from patent US20210078972A1, “QUINOLINE OR QUINAZOLINE COMPOUND AND APPLICATION THEREOF” (HAIHE BIOPHARMA CO., LTD., priority 2018, published 2021).
